Consider 14 compounds from patent US20090197967A1, “COMPOSITIONS AND METHODS FOR TREATMENT OF OPHTHALMIC DISEASES AND DISORDERS” (priority 2006, published 2009).

One experiment deals with RAR.
Assay: not given
The settings on record: at micromolar concentrations; cited from earlier work.
Turning to `CC1=C(/C=C/C(C)=C/C=C/C(C)=C/CN)C(C)(C)CCC1` [Ret-NH2, retinylamine], the “interaction with RAR” value is “does not interact”.

In another experiment the target is T1, visual cycle trans-cis isomerohydrolase (isomerase) (Bos taurus, UniProt Q28175).
T1 construct: Bovine Retinal Pigment Epithelium (RPE) microsome membranes were the source of visual cycle trans-cis isomerohydrolase (isomerase); from tissue; host or cells: bovine retinal pigment epithelium (RPE) microsome membranes; CRALBP made in E. coli
T1 sequence (Q28175 2-533 limits assumed): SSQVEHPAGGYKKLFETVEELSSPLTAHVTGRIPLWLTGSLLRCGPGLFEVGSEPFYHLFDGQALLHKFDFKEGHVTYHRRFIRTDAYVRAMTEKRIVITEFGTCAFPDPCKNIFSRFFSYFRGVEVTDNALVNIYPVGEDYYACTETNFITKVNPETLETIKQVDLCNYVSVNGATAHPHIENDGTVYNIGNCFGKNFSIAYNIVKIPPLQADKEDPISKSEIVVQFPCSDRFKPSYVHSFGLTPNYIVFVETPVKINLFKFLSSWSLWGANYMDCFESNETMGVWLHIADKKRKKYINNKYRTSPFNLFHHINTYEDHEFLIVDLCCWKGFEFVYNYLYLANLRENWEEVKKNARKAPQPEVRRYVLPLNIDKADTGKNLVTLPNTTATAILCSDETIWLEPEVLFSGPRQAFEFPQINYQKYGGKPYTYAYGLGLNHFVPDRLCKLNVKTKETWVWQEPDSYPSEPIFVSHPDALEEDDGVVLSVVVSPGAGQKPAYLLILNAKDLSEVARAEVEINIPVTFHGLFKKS
The experiment can be described thus: Isomerase reaction: inhibition of isomerase by retinylamine derivative compounds (bovine RPE microsomes, HPLC read-out). The class given is biochemical. Particulars: 5 min preincubation at 37° C., 10 μM all-trans-retinol, 6 μM apo-CRALBP, 30 minutes. On the procedure: The capability of several retinylamine compounds to inhibit the activity of visual cycle trans-cis isomerohydrolase (isomerase) was determined.
Isomerase and LRAT reaction—The isomerase reaction was performed essentially as described previously (Stecher et al., J Biol Chem 274:8577-85 (1999); see also Golczak et al., supra). Bovine Retinal Pigment Epithelium (RPE) microsome membranes were the source of visual cycle trans-cis isomerohydrolase (isomerase).
RPE microsome membrane extracts may be purchased or prepared according to methods practiced in the art and stored at −80° C. Crude RPE microsome extracts were thawed in a 37° C. water bath, and then immediately placed on ice. 50 ml crude RPE microsomes were placed into a 50 ml Teflon-glass homogenizer (Fisher Scientific, catalog no. 0841416M) on ice, powered by a hand-held DeWalt drill, and homogenized ten times up and down on ice under maximum speed. This process was repeated until the crude RPE microsome solution was homogenized. The homogenate was then subjected to centrifugation (50.2 Ti rotor (Beckman, Fullerton, Calif.), 13,000 RPM; 15360 Rcf) for 15 minutes at 4° C. The supernatant was collected and subjected to centrifugation a5 42,000 RPM (160,000 Rcf, 50.2 Ti rotor) for 1 hour at 4° C. The supernatant was removed, and the pellets were suspended in 12 ml (final volume) cold 10 mM MOPS buffer, pH 7.0. The resuspended RPE membranes in 5 ml aliquots were homogenized in a glass-to-glass homogenizer (Fisher Scientific, catalog no. K885500-0021) to high homogeneity. Protein concentration was quantified using the BCA protein assay according to the manufacturer's protocol (Pierce, Rockford, Ill.; catalog no. 23227). The homogenized RPE preparations were stored at −80° C.
Recombinant human apo cellular retinaldehyde-binding protein (CRALBP) was cloned and expressed according to standard methods in the molecular biology art (see Crabb et al., Protein Science 7:746-57 (1998); Crabb et al., J. Biol. Chem. 263:18688-92 (1988)). Briefly, total RNA was prepared from confluent ARPE19 cells (American Type Culture Collection, Manassas, Va.), cDNA was synthesized using an oligo(dT)12-18 primer, and then DNA encoding CRALBP was amplified by two sequential polymerase chain reactions (see Crabb et al., J. Biol. Chem. 263:18688-92 (1988); Intres, et al., J. Biol. Chem. 269:25411-18 (1994); GenBank Accession No. L34219.1). The PCR product was sub-cloned into pTrcHis2-TOPO TA vector according to the manufacturer's protocol (Invitrogen Inc., Carlsbad, Calif.; catalog no. K4400-01), and then the sequence was confirmed according to standard nucleotide sequencing techniques. Recombinant 6×His-tagged human CRALBP was expressed in One Shot TOP 10 chemically competent E. coli cells (Invitrogen), and the recombinant polypeptide was isolated from E. coli cell lysates by nickel affinity chromatography using Ni Sepharose XKI 6-20 columns for HPLC (Amersham Bioscience, Pittsburgh, Pa.; catalog no. 17-5268-02). The purified 6×His-tagged human CRALBP was dialyzed against 10 mM bis-tris-Propane (BTP) and analyzed by SDS-PAGE. The molecular weight of the recombinant human CRALBP was approximately 39 kDal.
The isomerase assay was performed in 10 mM BTP buffer, pH 7.5, 1% BSA, containing 1 mM ATP and 6 μM apo-CRALBP (cellular retinaldehyde-binding protein). To investigate inhibition properties of retinylamine derivative compounds, RPE microsomes were preincubated for 5 min in 37° C. with a compound in 10 mM BTP buffer, pH 7.5, 1% BSA, and 1 mM ATP prior to addition of apo-CRALBP and 10 μM all-trans-retinol. Retinylamine derivative compounds were delivered to the reaction mixture in 2 μl ethanol. If the compounds were not soluble in ethanol, DMF was added until the compound was in solution. The same volume of ethanol and/or DMF was added to the control reaction (absence of test compound). […]
Turning to `CC1=C(/C=C/C(C)=C2C=C/C(=C/CN)CCC/2)C(C)(C)CCC1` [Cmpd 1], the IC50 came out at 3.1 µM.
As to `CC1=C(/C=C/C(C)=C2C=C/C(=C/CN)CC/2)C(C)(C)CCC1` [Cmpd 2], the IC50 came to 0.55 µM.
Turning to `CC1=C(/C=C/C(C)=C/C=C/C(C)=C/CN)C(C)(C)CCC1` [Cmpd 3], the IC50 came to 0.7 µM.
Regarding `CC1=C(/C=C/C(C)=C/C=C/CN)C(C)(C)CCC1` [Cmpd 4], the 50% inhibitory concentration (IC50) was found to be 5.8 µM.
Regarding `CC(=CCCCCN)/C=C/C1=C(C)CCCC1(C)C` [Cmpd 5], the IC50 came to 1.7 µM.
As for `CC1=C(/C=C/C(C)=C/CN)C(C)(C)CCC1` [Cmpd 7], the 50% inhibitory concentration (IC50) is 8.4 µM.
For `CC1=C(/C=C/C(C)=C/C=C\CCCN)C(C)(C)CCC1` [Cmpd 8], the half-maximal inhibitory concentration (IC50) was 0.6 µM.
For the compound `CC1=C(/C=C/C(C)=C/C=C/CCCN)C(C)(C)CCC1` [Cmpd 9], the concentration for half-maximal inhibition (IC50) is 6 µM.
As to `CC1=C(/C=C/C(C)=C/C=C/CCCCN)C(C)(C)CCC1` [Cmpd 10], the half-inhibitory concentration (IC50) was 14 µM.
On to `CC1=C(/C=C/C(C)=C/C=C/C(C)=C/CN)C(C)(C)CCC1OCc1ccccc1` (stereo not drawn) [Cmpd 11], for which the half-inhibitory concentration (IC50) was 17 µM.
Consider `CC1=C(/C=C/C(C)=C/C=CCCCCCCN)C(C)(C)CCC1` [Cmpd 12], for which the half-inhibitory concentration (IC50) was determined as 25 µM.
For `CC1=C(/C=C/C(C)=C/C=C/CCCCCCN)C(C)(C)CCC1` [Cmpd 13], the half-inhibitory concentration (IC50) worked out at 200 µM.
In the case of `CC1=C(/C=C/C(C)N)C(C)(C)CCC1` (stereo not drawn) [Cmpd 14], the concentration for half-maximal inhibition (IC50) worked out at 80 µM.

Another experiment has as its system RXR.
Assay: not given
Particulars: at micromolar concentrations; cited from earlier work.
Regarding `CC1=C(/C=C/C(C)=C/C=C/C(C)=C/CN)C(C)(C)CCC1` [Ret-NH2, retinylamine], the “interaction with RXR” value is “does not interact”.

What is called IC50 is the point on the concentration scale where inhibition reaches its midpoint.
